Patent publication US12311056B2, “Composition and method for treatment of neuropsychiatric disorders” (Duke University, priority 2015, dated 2025)

Key:
clinical = test: clinical
From the text: Ond-PR2 is a bead formulation prepared from ondansetron as the active pharmaceutical ingredient (API). MPh-IR is an immediate-release generic formulation of methylphenidate. [MPh-IR+Ond-PR2] is a single encapsulated dosage form consisting of MPh-IR and Ond-PR2 as Components 1 and 2, respectively. Following in vitro dissolution testing and PK and safety determinations in normal healthy volunteers (Phase 1 trial), we conducted a proof-of-concept, randomized, double-blind, placebo-controlled Phase 2A safety/efficacy clinical trial. A total of 48 patients residing in a residential program and meeting the DSM-4 criteria for primary psychostimulant abuse were screened, and 30 qualifying subjects were randomized into either [MPh-IR+Ond-PR2] or placebo treatment group.
Single capsules containing either [MPh-IR+Ond-PR2] or dextrose (placebo) were administered once a day for 14 days. Subjects also underwent single fMRI-based assessments 1-7 days before the first study dosing (pre-treatment) and again between Day 3 and 7 days after the last dosing (i.e., post-treatment assessment was performed after complete drug washout). Outcome measures for group comparisons were behavioral rating scales and blood-oxygenation-level-dependent (BOLD) functional imaging results under well-established resting-state, cue-reactivity and Go/noGO task paradigms.
On Day 1 and Day 14, 24-four-hour blood PK samples were collected following single oral administrations of a [MPh-IR+Ond-PR2] capsule to: (1) estimate the PK parameters of the two Components (i.e., MPh-IR and Ond-PR2] by quantifying serum methylphenidate and ondansetron concentrations; and (2) determine whether or not any of these parameters change after single daily administrations for 14 days. Descriptive statistics for blood methylphenidate (MPh-IR) and ondansetron (Ond-PR2) concentrations at each time point were summarized as the mean, standard deviation and coefficient of variation. Estimation and statistical analyses of PK parameters were performed with SAS 9.3, and BABE Solution.

5-HT1A receptors = target: T1, 5-HT1A receptors (Homo sapiens, UniProt P08908); settings: cited from earlier work
T1 sequence (P08908 1-422): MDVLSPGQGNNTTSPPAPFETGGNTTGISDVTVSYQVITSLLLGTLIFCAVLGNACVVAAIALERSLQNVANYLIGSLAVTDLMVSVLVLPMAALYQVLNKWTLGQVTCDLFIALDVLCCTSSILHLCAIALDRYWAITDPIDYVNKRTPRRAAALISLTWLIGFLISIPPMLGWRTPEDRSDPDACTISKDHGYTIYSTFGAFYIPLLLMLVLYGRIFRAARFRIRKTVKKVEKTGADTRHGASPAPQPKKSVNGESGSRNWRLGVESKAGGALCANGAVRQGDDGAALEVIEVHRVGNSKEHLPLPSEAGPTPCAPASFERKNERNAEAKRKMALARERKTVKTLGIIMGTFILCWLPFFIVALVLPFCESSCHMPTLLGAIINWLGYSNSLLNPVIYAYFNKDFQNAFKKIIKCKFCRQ

5-HT3 receptors = settings: cited from earlier work
5-HT2C receptors = target: T2, 5-HT2C receptors (Homo sapiens, UniProt P28335); settings: cited from earlier work
T2 sequence (P28335 33-458): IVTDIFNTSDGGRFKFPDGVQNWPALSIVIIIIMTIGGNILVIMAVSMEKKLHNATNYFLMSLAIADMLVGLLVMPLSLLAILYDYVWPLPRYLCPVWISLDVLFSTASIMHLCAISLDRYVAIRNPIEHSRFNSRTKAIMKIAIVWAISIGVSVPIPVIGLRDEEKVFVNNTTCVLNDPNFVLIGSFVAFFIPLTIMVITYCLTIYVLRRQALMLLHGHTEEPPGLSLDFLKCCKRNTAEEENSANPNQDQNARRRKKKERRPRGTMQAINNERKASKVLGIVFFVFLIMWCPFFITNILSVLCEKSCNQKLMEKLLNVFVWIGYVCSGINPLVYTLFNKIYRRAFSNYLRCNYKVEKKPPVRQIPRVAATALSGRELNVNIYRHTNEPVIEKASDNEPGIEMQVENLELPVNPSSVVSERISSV

adrenergic α2 receptors = settings: cited from earlier work
histamine H1 receptors = histamine H1 receptors (Homo sapiens, UniProt P35367); settings: cited from earlier work
Chain of histamine H1 receptors (P35367 whole entry): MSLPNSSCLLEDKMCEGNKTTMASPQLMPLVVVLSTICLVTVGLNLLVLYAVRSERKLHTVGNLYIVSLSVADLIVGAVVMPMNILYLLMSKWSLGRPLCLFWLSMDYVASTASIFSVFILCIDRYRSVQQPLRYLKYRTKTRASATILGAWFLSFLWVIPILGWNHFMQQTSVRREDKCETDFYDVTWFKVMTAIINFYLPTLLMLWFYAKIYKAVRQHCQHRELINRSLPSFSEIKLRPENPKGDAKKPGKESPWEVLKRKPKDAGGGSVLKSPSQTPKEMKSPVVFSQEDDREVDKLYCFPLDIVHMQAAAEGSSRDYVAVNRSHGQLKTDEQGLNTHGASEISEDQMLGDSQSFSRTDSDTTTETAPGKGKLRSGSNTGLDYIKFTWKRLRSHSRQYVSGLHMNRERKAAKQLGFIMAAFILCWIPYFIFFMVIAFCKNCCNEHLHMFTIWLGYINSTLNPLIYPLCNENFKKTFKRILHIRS

5-HT2A receptors = 5-HT2A receptors (Homo sapiens, UniProt P28223); settings: cited from earlier work
Chain of 5-HT2A receptors (P28223 whole entry): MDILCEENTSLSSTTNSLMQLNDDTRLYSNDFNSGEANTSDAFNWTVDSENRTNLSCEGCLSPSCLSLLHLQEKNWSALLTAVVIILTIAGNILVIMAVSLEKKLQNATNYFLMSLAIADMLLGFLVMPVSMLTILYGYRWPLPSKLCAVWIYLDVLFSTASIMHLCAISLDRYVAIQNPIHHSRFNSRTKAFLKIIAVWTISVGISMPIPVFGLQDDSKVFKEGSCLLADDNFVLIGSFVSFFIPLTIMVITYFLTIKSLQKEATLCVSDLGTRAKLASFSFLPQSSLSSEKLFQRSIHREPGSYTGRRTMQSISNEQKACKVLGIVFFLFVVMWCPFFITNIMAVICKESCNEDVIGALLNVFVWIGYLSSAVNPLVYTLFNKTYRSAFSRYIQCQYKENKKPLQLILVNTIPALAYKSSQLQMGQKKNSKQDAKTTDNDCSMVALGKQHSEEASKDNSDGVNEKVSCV

rat animal models of LID = test: Levodopa-induced abnormal involuntary movement (LIAIM) in 6-OHDA-lesioned rat models of LID; type: in vivo; settings: 2 weeks s.c. treatment; challenge with 25 mg/kg levodopa two days after last treatment; compared to L_SS
Description: First, the dopaminergic neurotoxin 6-hydroxydopamine (6-OHDA) was injected into the right medial forebrain bundle of rats to induce unilateral lesions of the nigrostriatal DA pathway. Starting 3 weeks after 6-OHDA lesion, animals were treated twice daily with levodopa methyl ester (25 mg/kg, i.p., bid immediately preceded by 6.5 mg/kg, i.p. benserazide) for 3 weeks to establish LIAIM. Three hour LIAIM scores were quantified twice a week during the levodopa treatment using standard LIAIM rating scales.
Following LIAIM establishment, animals with combined limb, axial and orolingual LIAIM severity scores>25 were treated with one of the 3 treatment regimens for 2 weeks: (1) pergolide (0.1 mg/kg) followed 3.5 hours later by the 5-HT2A/2C antagonist ketanserin (1 mg/kg) [L_PK group]; (2) pergolide+saline 3.5 hours later [L_PS Group]; and (3) DMSO (1% in saline)+saline 3.5 hours later [L_SS]. All injections were given subcutaneously.
Two days after the last L_PK, L_PS or L-SS treatment, all animals were challenged with 25 mg/kg levodopa and their LIAIM scores were again quantified.

CYP2D6 = CYP2D6 (Homo sapiens, UniProt P10635); settings: cited from earlier work
Chain of CYP2D6 (P10635 whole entry): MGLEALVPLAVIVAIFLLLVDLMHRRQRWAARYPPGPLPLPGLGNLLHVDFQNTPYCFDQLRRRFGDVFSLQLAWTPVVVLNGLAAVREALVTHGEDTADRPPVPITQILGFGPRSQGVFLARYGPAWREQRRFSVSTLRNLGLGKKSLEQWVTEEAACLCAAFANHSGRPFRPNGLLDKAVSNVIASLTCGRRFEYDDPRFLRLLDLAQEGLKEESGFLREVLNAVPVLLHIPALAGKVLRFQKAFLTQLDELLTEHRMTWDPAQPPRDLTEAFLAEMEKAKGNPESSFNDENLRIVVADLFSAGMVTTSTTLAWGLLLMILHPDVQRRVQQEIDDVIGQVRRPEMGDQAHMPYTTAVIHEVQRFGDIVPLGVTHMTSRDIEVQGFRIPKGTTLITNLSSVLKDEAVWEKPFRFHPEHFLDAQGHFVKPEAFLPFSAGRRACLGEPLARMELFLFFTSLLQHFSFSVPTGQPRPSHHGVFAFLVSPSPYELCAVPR

[1] = cited from earlier work
[2] = vs R(−) enantiomer of mirtazapine

Q: For `Cc1nccn1CC1CCc2c(c3ccccc3n2C)C1=O` (stereo not drawn) [Ondansetron, ondansetron], which “AUC (0-24)” value (clinical; human, in vivo) is on record?
A: 186.4 ng·h

Q: What about the “AUC(0-inf)” value (clinical; human, in vivo) of the same compound?
A: 226.4 ng·h

Q: What about the “Change in Cmax, Cmin, Tmax, t½, AUC (0-24), AUC (0-inf.) and Kel between Day 1 and Day 14” value (clinical; human, in vivo) of the same compound?
A: No significant changes

Q: What about the Cmax (clinical; human, in vivo) of the same compound?
A: 12.6 ng/mL

Q: What about the “Half life(t1/2)” value (clinical; human, in vivo) of the same compound?
A: 7.2 h

Q: What about the “Kel (elimination rate constant)” value (clinical; human, in vivo) of the same compound?
A: 0.1 h − 1

Q: And the Tmax (clinical; human, in vivo)?
A: 5.8 h

Q: What about the AUC(0-t) (clinical; human, in vivo, AUC (0-24)) of the same compound?
A: 136 ng·h/mL

Q: And the AUC(0-inf) (clinical; human, in vivo, AUC (0-inf))?
A: 179 ng·h/mL

Q: And the half-life (clinical; human, in vivo, Half life(t1/2))?
A: 6.9 h

Q: And the Tmax (clinical; human, in vivo, Tmax)?
A: 6.3 h

Q: And the Cmax (clinical; human, in vivo, po)?
A: 11.2 ng/mL

Q: Which results are given for `CN1CCN2c3ncccc3Cc3ccccc3C2C1` (racemic) [Mirtazapine, 1,2,3,4,10,14b-hexahydro-2-methylpyrazino[2,1-a]pyrido[2,3-c]benzazepine]?
A: Affinity to 5-HT1A receptors (5-HT1A receptors): minimal affinity; Affinity for 5-HT3 receptors (5-HT3 receptors): high affinities; Affinity to 5-HT2C receptors (5-HT2C receptors): high affinities; Affinity for adrenergic α2 receptors (adrenergic α2 receptors): high affinities; Affinity for histamine H1 receptors (histamine H1 receptors): high affinities; Affinity to 5-HT2A receptors (5-HT2A receptors): high affinities

Q: Which “Total LIAIM scores (ratios between post- and pre-reversal treatment scores)” value (rat animal models of LID) does the source give for `CCCN1C[C@H](CSC)C[C@@H]2c3cccc4[nH]cc(c34)C[C@H]21` [L_P/S, pergolide] here?
A: No differences

Q: For `CN1CCN2c3ncccc3Cc3ccccc3[C@H]2C1` [esmirtazapine], which Metabolising enzyme (CYP2D6) is on record?
A: predominantly metabolized by CYP2D6

Q: What about the “Clearance in poor metabolizers compared to extensive metabolizers” value ([1]; CYP2D6 phenotype) of the same compound?
A: twice as low

Q: What about the “Absorption in comparison with the R(−) enantiomer” value ([1]; enantioselective transport process in the gut wall) of the same compound?
A: may be absorbed faster (but not more extensively)

Q: And the “Affinity for 5-HT2C receptors in comparison with the R(−) enantiomer” value (5-HT2C receptors; [2])?
A: higher affinity

Q: What about the “Affinity for α2 adrenergic receptors in comparison with the R(−) enantiomer” value (adrenergic α2 receptors; [2]) of the same compound?
A: higher affinity

Q: Which “Cmin (minimum blood concentration before the next administration)” value (clinical; Day 1, mean) does the source give for `COC(=O)C(c1ccccc1)C1CCCCN1` (stereo not drawn) [Methylphenidate, methylphenidate] here?
A: 0 ng

Q: And the “Kel (elimination rate constant)” value (clinical; Day 1, mean)?
A: 0.2 h − 1

Q: And the “AUC (0-24)” value (clinical; Day 14, mean)?
A: 21.5 ng·h

Q: What about the “Cmin (minimum blood concentration before the next administration)” value (clinical; Day 14, mean) of the same compound?
A: 0 ng

Q: And the “Half life(t1/2)” value (clinical; Day 14, mean)?
A: 3.1 h

Q: What about the “Kel (elimination rate constant)” value (clinical; Day 14, mean) of the same compound?
A: 0.2 h − 1

Q: And the AUC(0-t) (clinical; human, in vivo)?
A: 21.5 ng·h/mL

Q: And the Cmax (clinical; human, in vivo)?
A: 3.4 ng/mL

Q: And the half-life (clinical; human, in vivo)?
A: 3.2 h

Q: And the AUC(0-inf) (clinical; human, in vivo, AUC (0-inf), Day 1, mean)?
A: 21.6 ng·h/mL

Q: What about the AUC(0-inf) (clinical; human, in vivo, AUC (0-inf), Day 14, mean) of the same compound?
A: 23.4 ng·h/mL

Q: And the Tmax (clinical; human, in vivo, Tmax, Day 1, mean)?
A: 1.9 h

Q: What about the Tmax (clinical; human, in vivo, Tmax, Day 14, mean) of the same compound?
A: 1.7 h

Q: What about the Cmax (clinical; human, in vivo, po) of the same compound?
A: 4 ng/mL

Q: And the “Change in Cmax, Cmin, Tmax, t½, AUC (0-24), AUC (0-inf.) and Kel between Day 1 and Day 14” value (clinical; once-daily [MPh-IR+Ond-PR2] for 14 days)?
A: No significant changes
